Values joined by “and” are separate entries in the source; they are usually repeats but may differ in a detail not shown here. Equal values may be shown once.
Assay: safety assessments (adverse events, NCI CTCAE)
[1] = Grade 3/4 hematologic TRAE, all 165 patients
[2] = TRAE G 3/4, Accelerated phase CML n=38
[3] = TRAE G 3/4, Chronic phase CML n=127
[4] = TRAE any grades, Accelerated phase CML n=38
[5] = TRAE any grades, Chronic phase CML n=127

In the case of `Cc1ccc(C(=O)Nc2ccc(CN3CCN(C)CC3)c(C(F)(F)F)c2)cc1C#Cc1cnc2[nH]ncc2c1` [olverembatinib], the Anemia [1] is reported as 23.0%, the Neutropenia [1] is reported as 11.5% and the Thrombocytopenia [1] is reported as 51.5%. The Anemia [2] was 12 (31.6) n (%), the Arthralgia [2] was 1 (2.6) n (%) and the Asthenia [2] was 0 n (%). For the same compound, the Hematologic [2] was 26 (68.4) n (%), the Hyperbilirubinemia [2] was 1 (2.6) n (%) and the Hyperglycemia [2] was 0 n (%). The Hypertriglyceridemia [2] was 1 (2.6) n (%), the Hypoalbuminemia [2] was 0 n (%) and the Hypocalcemia [2] was 0 n (%). For the same compound, the Hypokalemia [2] was 1 (2.6) n (%), the Hyponatremia [2] was 0 n (%) and the Increased alanine aminotransferase [2] was 1 (2.6) n (%). For the same compound, the Increased alkaline phosphatase [2] was 0 n (%), the Increased aspartate aminotransferase [2] was 2 (5.3) n (%) and the Increased creatine phosphokinase [2] was 1 (2.6) n (%). For the same compound, the “Increased γ-glutamyl transferase” value [2] was 0 n (%), the Leukopenia [2] was 13 (34.2) n (%) and the Myalgia [2] was 0 n (%). The Neutropenia [2] was 8 (21.1) n (%), the Nonhematologic [2] was 20 (52.6) n (%) and the Pain in extremity [2] was 1 (2.6) n (%). The Proteinuria [2] was 1 (2.6) n (%), the Pyrexia [2] was 4 (10.5) n (%) and the Rash [2] was 0 n (%). For the same compound, the Sinus tachycardia [2] was 0 n (%), the Skin pigmentation [2] was 0 n (%) and the Thrombocytopenia [2] was 23 (60.5) n (%). The Treatment-related adverse events [2] was 34 (89.5) n (%), the Anemia [3] was 26 (20.5) n (%) and the Arthralgia [3] was 0 n (%). The Asthenia [3] was 0 n (%), the Hematologic [3] was 67 (52.8) n (%) and the Hyperbilirubinemia [3] was 3 (2.4) n (%). The Hyperglycemia [3] was 1 (0.8) n (%), the Hypertriglyceridemia [3] was 11 (8.7) n (%) and the Hypoalbuminemia [3] was 0 n (%). The Hypocalcemia [3] was 0 n (%), the Hypokalemia [3] was 1 (0.8) n (%) and the Hyponatremia [3] was 1 (0.8) n (%). The Increased alanine aminotransferase [3] was 3 (2.4) n (%), the Increased alkaline phosphatase [3] was 1 (0.8) n (%) and the Increased aspartate aminotransferase [3] was 2 (1.6) n (%). The Increased creatine phosphokinase [3] was 10 (7.9) n (%), the “Increased γ-glutamyl transferase” value [3] was 5 (3.9) n (%) and the Leukopenia [3] was 21 (16.5) n (%). For the same compound, the Myalgia [3] was 0 n (%), the Neutropenia [3] was 11 (8.7) n (%) and the Nonhematologic [3] was 61 (48.0) n (%). The Pain in extremity [3] was 1 (0.8) n (%), the Proteinuria [3] was 5 (3.9) n (%) and the Pyrexia [3] was 5 (3.9) n (%). For the same compound, the Rash [3] was 1 (0.8) n (%), the Sinus tachycardia [3] was 0 n (%) and the Skin pigmentation [3] was 0 n (%). The Thrombocytopenia [3] was 62 (48.8) n (%), the Treatment-related adverse events [3] was 97 (76.4) n (%) and the Anemia (TRAE G 3/4, Total n=165) was 38 (23.0) n (%). For the same compound, the Arthralgia (TRAE G 3/4, Total n=165) was 1 (0.6) n (%), the Asthenia (TRAE G 3/4, Total n=165) was 0 n (%) and the Hematologic (TRAE G 3/4, Total n=165) was 93 (56.4) n (%). The Hyperbilirubinemia (TRAE G 3/4, Total n=165) was 4 (2.4) n (%), the Hyperglycemia (TRAE G 3/4, Total n=165) was 1 (0.6) n (%) and the Hypertriglyceridemia (TRAE G 3/4, Total n=165) was 12 (7.3) n (%). The Hypoalbuminemia (TRAE G 3/4, Total n=165) was 0 n (%), the Hypocalcemia (TRAE G 3/4, Total n=165) was 0 n (%) and the Hypokalemia (TRAE G 3/4, Total n=165) was 2 (1.2) n (%). For the same compound, the Hyponatremia (TRAE G 3/4, Total n=165) was 1 (0.6) n (%), the Increased alanine aminotransferase (TRAE G 3/4, Total n=165) was 4 (2.4) n (%) and the Increased alkaline phosphatase (TRAE G 3/4, Total n=165) was 1 (0.6) n (%). For the same compound, the Increased aspartate aminotransferase (TRAE G 3/4, Total n=165) was 4 (2.4) n (%), the Increased creatine phosphokinase (TRAE G 3/4, Total n=165) was 11 (6.7) n (%) and the “Increased γ-glutamyl transferase” value (TRAE G 3/4, Total n=165) was 5 (3.0) n (%). For the same compound, the Leukopenia (TRAE G 3/4, Total n=165) was 34 (20.6) n (%), the Myalgia (TRAE G 3/4, Total n=165) was 0 n (%) and the Neutropenia (TRAE G 3/4, Total n=165) was 19 (11.5) n (%). For the same compound, the Nonhematologic (TRAE G 3/4, Total n=165) was 81 (49.1) n (%), the Pain in extremity (TRAE G 3/4, Total n=165) was 2 (1.2) n (%) and the Proteinuria (TRAE G 3/4, Total n=165) was 6 (3.6) n (%). For the same compound, the Pyrexia (TRAE G 3/4, Total n=165) was 9 (5.5) n (%), the Rash (TRAE G 3/4, Total n=165) was 1 (0.6) n (%) and the Sinus tachycardia (TRAE G 3/4, Total n=165) was 0 n (%). For the same compound, the Skin pigmentation (TRAE G 3/4, Total n=165) was 0 n (%), the Thrombocytopenia (TRAE G 3/4, Total n=165) was 85 (51.5) n (%) and the Treatment-related adverse events (TRAE G 3/4, Total n=165) was 131 (79.4%) n (%) and 131 (79.4) n (%). The Anemia [4] was 24 (63.2) n (%), the Arthralgia [4] was 8 (21.1) n (%) and the Asthenia [4] was 6 (15.8) n (%). The Hematologic [4] was 36 (94.7) n (%), the Hyperbilirubinemia [4] was 13 (34.2) n (%) and the Hyperglycemia [4] was 10 (26.3) n (%). The Hypertriglyceridemia [4] was 23 (60.5) n (%), the Hypoalbuminemia [4] was 6 (15.8) n (%) and the Hypocalcemia [4] was 19 (50.0) n (%). For the same compound, the Hypokalemia [4] was 10 (26.3) n (%), the Hyponatremia [4] was 10 (26.3) n (%) and the Increased alanine aminotransferase [4] was 9 (23.7) n (%). For the same compound, the Increased alkaline phosphatase [4] was 5 (13.2) n (%), the Increased aspartate aminotransferase [4] was 10 (26.3) n (%) and the Increased creatine phosphokinase [4] was 5 (13.2) n (%). For the same compound, the “Increased γ-glutamyl transferase” value [4] was 9 (23.7) n (%), the Leukopenia [4] was 19 (50.0) n (%) and the Myalgia [4] was 8 (21.1) n (%). For the same compound, the Neutropenia [4] was 8 (21.1) n (%), the Nonhematologic [4] was 38 (100.0) n (%) and the Pain in extremity [4] was 7 (18.4) n (%). The Proteinuria [4] was 19 (50.0) n (%), the Pyrexia [4] was 9 (23.7) n (%) and the Rash [4] was 8 (21.1) n (%). The Sinus tachycardia [4] was 7 (18.4) n (%), the Skin pigmentation [4] was 31 (81.6) n (%) and the Thrombocytopenia [4] was 33 (86.8) n (%). The Treatment-related adverse events [4] was 38 (100.0) n (%), the Anemia [5] was 66 (52.0) n (%) and the Arthralgia [5] was 11 (8.7) n (%). For the same compound, the Asthenia [5] was 12 (9.4) n (%), the Hematologic [5] was 102 (80.3) n (%) and the Hyperbilirubinemia [5] was 56 (44.1) n (%). The Hyperglycemia [5] was 33 (26.0) n (%), the Hypertriglyceridemia [5] was 72 (56.7) n (%) and the Hypoalbuminemia [5] was 20 (15.7) n (%). For the same compound, the Hypocalcemia [5] was 45 (35.4) n (%), the Hypokalemia [5] was 32 (25.2) n (%) and the Hyponatremia [5] was 28 (22.0) n (%). For the same compound, the Increased alanine aminotransferase [5] was 50 (39.4) n (%), the Increased alkaline phosphatase [5] was 16 (12.6) n (%) and the Increased aspartate aminotransferase [5] was 49 (38.6) n (%). The Increased creatine phosphokinase [5] was 43 (33.9) n (%), the “Increased γ-glutamyl transferase” value [5] was 38 (29.9) n (%) and the Leukopenia [5] was 37 (29.1) n (%). The Myalgia [5] was 23 (18.1) n (%), the Neutropenia [5] was 18 (14.2) n (%) and the Nonhematologic [5] was 127 (100.0) n (%). For the same compound, the Pain in extremity [5] was 14 (11.0) n (%), the Proteinuria [5] was 65 (51.2) n (%) and the Pyrexia [5] was 21 (16.5) n (%). The Rash [5] was 19 (15.0) n (%), the Sinus tachycardia [5] was 23 (18.1) n (%) and the Skin pigmentation [5] was 108 (85.0) n (%). The Thrombocytopenia [5] was 93 (73.2) n (%), the Treatment-related adverse events [5] was 127 (100.0) n (%) and the Anemia (TRAE any grades, Total n=165) was 90 (54.5) n (%). The Arthralgia (TRAE any grades, Total n=165) was 19 (11.5) n (%) and the Asthenia (TRAE any grades, Total n=165) was 18 (10.9) n (%).

Source: publication PMC9389804 (Journal of Hematology & Oncology, 2022)
